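Results reflect a 48-hour exposure of cells in 96-well plates to compound at five concentrations. Here, GI50 denotes the concentration required for 50% inhibition of growth.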 Calls of active or inactive are those of the source. No stated cut-off is given here; in the data, active = GI50 up to about 1.1 µM and inactive = higher.

The term GI50 denotes the concentration that inhibits growth by half.

What all share (assay): DTP human tumour cell line panel, 48 h
In assay [1] the test system is A498.
For assay [2], the system named is ACHN.
Assay [3] has as its system DU-145.
In assay [4] the test system is HT-29.
Assay [5] deals with Hs-578T.
Assay [6] deals with IGROV-1.
The test system of assay [7] is K562.
The subject of assay [8] is MDA-MB-435.
The subject of assay [9] is MDA-N.
For assay [10], the system named is MOLT-4.
Assay [11] concerns NCI-H522.
The subject of assay [12] is OVCAR-3.
The subject of assay [13] is RPMI-8226.
Assay [14] deals with SF-268.
In assay [15] the test system is SK-MEL-5.
For assay [16], the system named is SW-620.
For assay [17], the system named is U-251.
In assay [18] the test system is HOP-92.

As for `COc1ccc(C[C@H]2NC(=O)/C=C/C[C@@H]([C@H](C)[C@H]3O[C@@H]3c3ccccc3)OC(=O)[C@H](CC(C)C)OC(=O)[C@H](C)CNC2=O)cc1`, the GI50 was 21.5 pM (active) in assay [1]; 5.93e-05 µM (active) in assay [2]; 2.96e-05 µM (active) in assay [3]; 8.18e-06 µM (active) in [4]; 1.01e-05 µM (active) in assay [5]; 3.24e-05 µM (active) in [6]. In addition, the GI50 in [7] was 9.27e-06 µM (active); in assay [8], 3.37e-06 µM (active); in assay [9], 5.31e-06 µM (active); in assay [10], 2.85e-05 µM (active); in assay [11], 1.05e-05 µM (active); in [12] it was 1.58e-05 µM (active). Also, the GI50 is 2.85e-05 µM (active) in assay [13]; 7.13e-05 µM (active) in assay [14]; 7.53e-06 µM (active) in assay [15]; 1.4e-05 µM (active) in [16]; 2.86e-05 µM (active) in assay [17].

`CC1(C)CC(=O)c2c(nc3ccc4ccccc4c3c2-c2ccc(NC(=O)CCC(=O)Nc3ccc(-c4c5c(nc6ccc7ccccc7c46)CC(C)(C)CC5=O)cc3)cc2)C1`: the GI50 in [2], in [3], in [4], in assay [5], in assay [6] and in assay [7] was > 100 µM (inactive) in each case. The GI50 in assay [8], in assay [9], in assay [10], in assay [11], in [12] and in assay [13] was > 100 µM (inactive) throughout. The GI50 in [14], in assay [15], in assay [16] and in assay [17] was > 100 µM (inactive) in each case.

Turning to `COc1ccc(/N=N/c2c(-c3c(OC)cc4occc4c3OC)[nH]c(=O)c(C#N)c2C)cc1`, the GI50 in assay [2] was > 100 µM (inactive); in assay [3], > 100 µM (inactive); in assay [18] it was > 100 µM (inactive); in assay [4], > 100 µM (inactive); in [5], > 100 µM (inactive); in [6], 76.2 µM (inactive). Further, the GI50 in [7], in assay [8], in [9], in [10], in [11] and in assay [12] was > 100 µM (inactive) in each case. Moreover, the GI50 in [13], in assay [14], in [15], in assay [16] and in [17] was > 100 µM (inactive) each time.

With `O=C1CSC2=NC3=C(CSC/C3=C\c3ccccc3)C(c3ccccc3)N12` (stereo unspecified), the GI50 is 57.5 µM (inactive) in assay [2]; > 100 µM (inactive) in assay [3]; 46 µM (inactive) in assay [18]; 95.5 µM (inactive) in assay [4]; > 100 µM (inactive) in assay [5]; > 100 µM (inactive) in assay [6]. For the same compound, the GI50 is 39.4 µM (inactive) in assay [7]; 65.5 µM (inactive) in assay [8]; 32.6 µM (inactive) in assay [9]; 53.5 µM (inactive) in assay [10]; 88.9 µM (inactive) in assay [12]; 31.1 µM (inactive) in [13]. Besides, the GI50 was > 100 µM (inactive) in assay [14], 52.1 µM (inactive) in assay [15], 84.9 µM (inactive) in assay [16] and 39.8 µM (inactive) in assay [17].
